Test results: patent US5827890A, “Succinamide derivatives, processes for their preparation and their use as gelatinase and collagenase inhibitors” (Celltech Therapeutics Ltd., priority 1993, dated 1998)
pKi: −log10 of the molar value.

Experiments:
Stromelysin-1 = Stromelysin-1 (Homo sapiens, UniProt P08254); assay: Enzyme assay to determine Ki values, peptide substrate Dnp-Pro-Leu-Gly-Leu-Trp-Ala-D-Arg-NH2 (stromelysin-1); assay type: biochemical; details: incubated overnight, pH 7.5; Ki (app) assumed to approximate true Ki
Method: (§1) The activity of the compounds of the invention may be determined as described below.
(§2) All enzyme assays to determine Ki values were performed using the peptide substrate Dnp-Pro-Leu-Gly-Leu-Trp-Ala-D-Arg-NH2. [M. Sharon Stock and Robert D. Gray. JBC 264, 4277-81, 1989). The enzymes cleave at the Gly-Leu bond which can be followed fluorimetrically by measuring the increase in Trp fluorescence emission associated with the removal of the quenching dinitrophenol (Dnp) group.
(§3) Brij 35 at either room temperature or 37° C. depending on the enzyme. The reaction is stopped by adjusting the pH to 4 using 0.1M sodium acetate buffer and the fluorescence read at an excitation wavelength of 280 nm and emission wavelength of 346 nm.
(§4) Ki values can be established using the equation for tight-binding inhibition: [formula] where Vo is the initial rate of reaction in the absence of inhibitor, Vi is the initial rate in the presence of inhibitor, [E] is the total enzyme concentration and [I] the total inhibitor concentration in the reaction mixture.
(§5) For stromelysin and collagenase, Ki (app) was assumed to approximate to the true Ki as [S]<<Km for the substrate hydrolysis. For gelatinase the Ki was determined by performing the analyses at several substrate concentrations. A plot of Ki (app) vs. [S] then gave the true Ki as the value of the y-axis intercept.

gelatinase A (72 K form) = assay: Pleural cavity assay, oral activity in mice (injected gelatinase A and radiolabelled [14C]-gelatin); assay type: in vivo; details: for inhibition (comparative experiment): each compound administered at the same dose (dose not stated)
Method: The oral activity of the compounds according to the invention may be determined using the pleural cavity assay described below.
A […] solution of the test compound in an appropriate solvent (e.g. 50% polyethylene glycol (PG) plus a variable proportion of dimethyl sulphoxide (DMSO) (if required) is administered orally. After an interval of up to 24 hrs, 0.4 ml of a mixture of an equal volume (2.2 ml) of the enzyme gelatinase A (72 K form at a concentration of 20 nM) and radiolabelled [^14 C]-gelatin (at an approximate concentration of 10 μM i.e. 500 times molar excess) is injected into the pleural cavity and maintained at […]. After 35 min mice are overdosed with anaesthetic, the contents of the pleural cavity aspirated and the aspirates cleared by centrifugation at 4° C. then diluted to 15% in trichloroacetic acid (TCA) and left overnight at 4° C. The resulting TCA precipitate is then separated by centrifugation and radioactivity in each supernatant measured by scintillation counting. Results are expressed as a % inhibition of enzyme activity calculated by comparing the radioactivity measured for each test compound with a control value obtained by performing the same assay in the absence of a gelatinase inhibitor.
A comparative experiment was carried out using the same procedure and the compound of Example 1 [A] and the amides [B], [C] and [D] (prepared in a similar fashion to the compound of Example 1): [drawing 19]

Collagenase = target: T1, Collagenase (Homo sapiens, UniProt P03956); assay: Enzyme assay to determine Ki values, peptide substrate Dnp-Pro-Leu-Gly-Leu-Trp-Ala-D-Arg-NH2 (collagenase); assay type: biochemical; details: for pKi: incubated overnight, pH 7.5, Ki (app) assumed to approximate true Ki
T1 sequence (P03956 100-469): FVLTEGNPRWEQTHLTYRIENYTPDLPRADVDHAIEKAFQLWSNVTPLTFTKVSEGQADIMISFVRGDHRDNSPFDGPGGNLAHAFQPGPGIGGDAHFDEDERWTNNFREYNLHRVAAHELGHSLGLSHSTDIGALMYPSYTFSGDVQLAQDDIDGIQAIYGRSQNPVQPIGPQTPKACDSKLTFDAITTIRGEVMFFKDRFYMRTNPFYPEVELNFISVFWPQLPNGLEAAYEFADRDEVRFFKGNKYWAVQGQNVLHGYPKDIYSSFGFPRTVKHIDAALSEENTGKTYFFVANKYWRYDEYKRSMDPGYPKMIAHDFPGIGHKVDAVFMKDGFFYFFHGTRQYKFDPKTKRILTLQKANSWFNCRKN
Method: as §1, §2, §3, §4, §5

Gelatinase 72KD = target: T2, Gelatinase 72KD (Homo sapiens, UniProt P08253); assay: Enzyme assay to determine Ki values, peptide substrate Dnp-Pro-Leu-Gly-Leu-Trp-Ala-D-Arg-NH2 (gelatinase 72KD); assay type: biochemical; details: for pKi: incubated overnight, pH 7.5, true Ki from plot of Ki (app) vs. [S]
T2 sequence (P08253 110-660): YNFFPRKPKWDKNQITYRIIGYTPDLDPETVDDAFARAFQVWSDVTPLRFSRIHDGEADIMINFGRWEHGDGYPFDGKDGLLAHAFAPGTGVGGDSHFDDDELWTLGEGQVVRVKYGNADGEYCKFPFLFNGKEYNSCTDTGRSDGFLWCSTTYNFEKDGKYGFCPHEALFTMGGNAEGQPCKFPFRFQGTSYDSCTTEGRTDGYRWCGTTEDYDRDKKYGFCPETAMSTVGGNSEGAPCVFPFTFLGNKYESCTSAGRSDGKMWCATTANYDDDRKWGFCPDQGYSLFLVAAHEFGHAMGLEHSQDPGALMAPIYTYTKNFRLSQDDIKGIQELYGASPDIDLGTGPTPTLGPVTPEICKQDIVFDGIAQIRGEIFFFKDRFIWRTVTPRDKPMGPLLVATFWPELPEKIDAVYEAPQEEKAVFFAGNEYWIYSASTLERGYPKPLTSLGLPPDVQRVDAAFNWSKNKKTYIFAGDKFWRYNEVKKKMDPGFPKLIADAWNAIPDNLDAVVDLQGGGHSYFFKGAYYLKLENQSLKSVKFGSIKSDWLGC
Method: as §1, §2, §3, §4, §5

[1] = system: vascularisation of sponge implants; assay: Inhibition of angiogenesis: vascularisation of sponge implants in mice, xenon clearance; assay type: in vivo; details: oral, twice per day, 100 mg/kg in PG vehicle, beginning 8 h after sponge implantation
Method: Compounds were assessed by their ability to inhibit vascularisation of sponge implants in mice. The amount of vascularisation in this model is determined by the rate of clearance of radioactive xenon from the sponge. Compounds in polyethylene glycol (PG) vehicle were orally administered twice per day at a dose of 100 mg/kg, with administration beginning 8 h after sponge implementation.
FIG. 1 illustrates the result of one experiment using the compound of Example 1. For comparative purposes the following compound (Compound [E]) was used: [drawing 20] (prepared as described in International Patent Application No. PCT/GB 94/00896).
The results are expressed in FIG. 1 as a graph of xenon clearance (expressed as a clearance constant) against time.

[2] = relative to the compound of Example 1

Chain of Stromelysin-1 (P08254 100-477): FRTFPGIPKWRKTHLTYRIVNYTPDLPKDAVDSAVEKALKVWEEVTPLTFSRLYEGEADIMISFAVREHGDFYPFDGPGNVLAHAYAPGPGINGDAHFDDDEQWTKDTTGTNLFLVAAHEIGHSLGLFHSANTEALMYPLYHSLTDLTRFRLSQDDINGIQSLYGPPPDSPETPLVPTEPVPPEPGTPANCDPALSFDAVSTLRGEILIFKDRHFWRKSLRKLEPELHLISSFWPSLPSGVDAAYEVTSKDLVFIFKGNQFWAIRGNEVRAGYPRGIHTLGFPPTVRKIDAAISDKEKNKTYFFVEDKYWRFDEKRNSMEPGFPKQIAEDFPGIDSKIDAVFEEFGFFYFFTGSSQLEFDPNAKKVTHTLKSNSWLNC

## CNC(=O)[C@@H](NC(=O)[C@H](CCCc1ccc(Cl)cc1)CC(=O)NO)C(C)(C)C [Example 5, N^4 -Hydroxy-N^1-(1-(S)-methylaminocarbonyl-2.2-dimethylpropyl)-2-(R)-(4-chlorophenylpropyl)succinamide]
Stromelysin-1
  pKi: 8.58
Gelatinase A (72 K form); at 10 mg/Kg
  % Inhibition of enzyme activity: 64%
Collagenase
  pKi: 7.65

## CC(C)(C)[C@H](NC(=O)[C@H](CCCc1ccc(F)cc1)CC(=O)NO)C(N)=O [Example 6, N^4 -Hydroxy-N^1-(1-(S)-carbamoyl-2.2-dimethylpropyl)-2-(R)-(4-fluorophenylpropyl)succinamide]
Gelatinase 72KD
  pKi: 9.68
Gelatinase A (72 K form); at 10 mg/Kg
  % Inhibition of enzyme activity: 76%

## CNC(=O)[C@@H](NC(=O)[C@@H](CC(=O)NO)CC(C)C)C(C)(C)SC [Compound [E], reference compound]
Gelatinase 72KD; [2]
  fold less potent on gelatinase than the compound of Example 1: approximately 40 fold
Collagenase; [2]
  fold more potent on collagenase than the compound of Example 1: approximately 40 fold

## CNC(=O)[C@@H](NC(=O)[C@H](CCCc1ccc(C)cc1)CC(=O)NO)C(C)(C)C [Example 7, N^4 -Hydroxy-N^1-(1-(S)-methylaminocarbonyl-2.2-dimethylpropyl)-2-(R)-(4-methylphenylpropyl)succinamide]
Gelatinase 72KD
  pKi: 10.64
Stromelysin-1
  pKi: 8.00
Gelatinase A (72 K form); at 80 mg/Kg
  % Inhibition of enzyme activity: 100%
Collagenase
  pKi: 7.07

## CC(C)[C@H](NC(=O)[C@H](CCCc1ccc(Cl)cc1)CC(=O)NO)C(N)=O [Compound [B], reference compound]
Gelatinase A (72 K form)
  inhibition (comparative experiment): 53%

## CC(C)C[C@H](NC(=O)[C@H](CCCc1ccc(Cl)cc1)CC(=O)NO)C(N)=O [Compound [C], reference compound]
Gelatinase A (72 K form)
  inhibition (comparative experiment): 25%

## CCNC(=O)[C@@H](NC(=O)[C@H](CCCc1ccc(Cl)cc1)CC(=O)NO)C(C)(C)C [Compound [D], reference compound]
Gelatinase A (72 K form)
  inhibition (comparative experiment): 11%

## CC(C)(C)[C@H](NC(=O)[C@H](CCCc1ccccc1)CC(=O)NO)C(N)=O [Example 2, N^4 -Hydroxy-N^1-(1-(S)-carbamoyl-2.2-dimethylpropyl)-2-(R)-(phenylpropyl)succinamide]
Gelatinase A (72 K form); at 10 mg/Kg
  % Inhibition of enzyme activity: 73%

## Cc1ccc(CCC[C@H](CC(=O)NO)C(=O)N[C@H](C(N)=O)C(C)(C)C)cc1 [Example 3, N^4 Hydroxy-N^1-(1-(S)-carbamoyl-2.2-dimethylpropyl)-2-(R)-(4-methylphenylpropyl)succinamide]
Gelatinase 72KD
  pKi: 10.38
Stromelysin-1
  pKi: 7.99
Gelatinase A (72 K form); at 10 mg/Kg
  % Inhibition of enzyme activity: 95%
Collagenase
  pKi: 6.31

## CC(C)(C)[C@H](NC(=O)[C@H](CCCc1ccc(Cl)cc1)CC(=O)NO)C(N)=O [Example 1, N^4 Hydroxy-N^1-(1-(S)-carbamoyl-2.2-dimethylpropyl)-2-(R)-4(chlorophenylpropyl)succinamide]
[1]
  inhibition of vascularisation / xenon clearance (FIG. 1): substantial inhibition of vascularisation as seen by the marked inhibition of xenon clearance, which was much greater than the inhibition achieved by the non-specific metalloproteinase inhibitor Compound [E]
Gelatinase 72KD
  pKi: 10.15
Stromelysin-1
  pKi: 7.96
Gelatinase A (72 K form); at 10 mg/Kg
  % Inhibition of enzyme activity: 100%
Gelatinase A (72 K form)
  inhibition (comparative experiment): 100%
Collagenase
  pKi: 6.91

## COc1ccc(CCC[C@H](CC(=O)NO)C(=O)N[C@H](C(N)=O)C(C)(C)C)cc1 [Example 4, N^4 -Hydroxy-N^1-(1-(S)-carbamoyl-2.2-dimethylpropyl)-2-(R)-(4-methoxyphenylpropyl)succinamide]
Gelatinase 72KD
  pKi: 10.64
Gelatinase A (72 K form); at 10 mg/Kg
  % Inhibition of enzyme activity: 82%
